Results reported in patent US5399565A, “Pyrazolidinone CCK and gastrin antagonists and pharmaceutical formulations therof” (priority 1993, dated 1995).

Legend:
[1] = CCK-induced colonic motility in anesthetized ferrets; format: in vivo, male ferrets
Method: (§1) Experiments were performed on fasted (18 hour) male ferrets weighing 0.8-1.5 kilograms (Triple F Supplier) and water was given ad lib. Anesthesia was induced with urethane (0.2 ml/100 grams body weight j.p., Sigma Chemical Company), a tracheal tube was inserted to provide a clear airway for spontaneous breathing and the body temperature was maintained at 38° using a homeothermic blanket (Harvard Apparatus). The left jugular vein was cannulated (PE-50, i.d. 0.58 mm, o.d. 0.97 mm) for the subsequent administration of drugs and the left carotid artery was cannulated (PE-90, i.d. 0.86 mm, o.d. 1.277 mm) for the continual measurement of blood pressure and heart rate. Following a laporatomy, a catheter (PE-50) was inserted into the gall bladder through the bile duct and connected via a pressure transducer to a chart recorder for the visual display. The colon was located and a strain gauge transducer was sutured in the circular muscle direction to monitor contractile state. Before each experiment the blood pressure, heart rate and all motility recording transducers were calibrated for subsequent recording of data.
Following a 30 minute stabilization period, cholecystokinin 8-sulfated (CCK8-S) was given at doses of 100, 300 and 700 ng/kg intravenously (iv), with a 10 minute stabilization period in between CCK8-S doses. […]

[2] = CCK-induced gall bladder emptying in anesthetized ferrets; format: in vivo, male ferrets
Method: as §1
Following a 30 minute stabilization period, cholecystokinin 8-sulfated (CCK8-S) was given at doses of 100, 300 and 700 ng/kg intravenously (iv), with a 10 minute stabilization period in between CCK8-S doses. The test compound was administered (iv) after another 30 minute stabilization period, and the CCK8-S dose-response curve was repeated five minutes later.
Test compound vehicle was 3 drops of DMSO (99.9%), 0.5 ml 0.1N NaOH, saline.

[3] = biological target: T1, brain CCK receptor (Mus musculus, UniProt P56481); experiment: CCK receptor binding, mouse brain membranes (125I-CCK-8 sulfate)
T1 construct: from tissue; host or cells: forebrain membranes of male CF-1 mice
T1 sequence (P56481 1-453): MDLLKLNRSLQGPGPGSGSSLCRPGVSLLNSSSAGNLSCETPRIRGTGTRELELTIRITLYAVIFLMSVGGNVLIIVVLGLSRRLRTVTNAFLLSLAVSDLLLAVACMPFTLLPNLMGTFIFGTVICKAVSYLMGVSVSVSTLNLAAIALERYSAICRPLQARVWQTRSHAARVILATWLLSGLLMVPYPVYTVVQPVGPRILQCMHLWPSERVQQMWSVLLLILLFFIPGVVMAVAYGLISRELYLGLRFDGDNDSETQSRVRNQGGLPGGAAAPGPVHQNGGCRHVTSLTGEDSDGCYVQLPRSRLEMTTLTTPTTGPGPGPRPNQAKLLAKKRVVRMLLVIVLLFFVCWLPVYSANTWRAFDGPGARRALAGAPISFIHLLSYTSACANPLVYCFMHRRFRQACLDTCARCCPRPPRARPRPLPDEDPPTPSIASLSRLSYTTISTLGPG

[4] = biological target: T2, peripheral type CCK receptors in rat pancreas (Rattus norvegicus, UniProt P30551); experiment: Binding to peripheral type CCK receptors in rat pancreas (3H-L-364,718); settings: at 10 μM; read-out: Pancreas Percent Inhibition
T2 construct: Pancreas was obtained from male Sprague-Dawley rats; from tissue; host or cells: pancreas membranes of male Sprague-Dawley rats
T2 sequence (P30551 1-444): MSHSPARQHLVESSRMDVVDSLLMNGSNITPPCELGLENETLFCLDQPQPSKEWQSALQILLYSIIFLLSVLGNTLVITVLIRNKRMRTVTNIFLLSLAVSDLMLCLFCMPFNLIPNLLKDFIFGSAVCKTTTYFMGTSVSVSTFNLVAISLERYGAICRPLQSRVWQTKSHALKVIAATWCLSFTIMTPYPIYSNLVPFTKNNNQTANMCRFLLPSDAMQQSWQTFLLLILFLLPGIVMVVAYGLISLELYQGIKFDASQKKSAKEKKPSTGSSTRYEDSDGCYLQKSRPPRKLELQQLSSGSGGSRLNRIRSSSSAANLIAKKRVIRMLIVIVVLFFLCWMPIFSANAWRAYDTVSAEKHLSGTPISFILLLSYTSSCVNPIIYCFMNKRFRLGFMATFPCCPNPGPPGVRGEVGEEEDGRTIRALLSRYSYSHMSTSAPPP
How it was run: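 Washed pancreatic membranes from male Sprague-Dawley rats (150-200 g) incubated 1 h at room temperature with 0.4-0.6 nM ³H-L-364,718 in 50 mM Tris pH 7.4, 5 mM MgCl2, bacitracin, 5 mM DTT. Bound radioactivity counted after filtration; nonspecific binding defined with 100 nM L-364,718; IC50 determined.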

[5] = Auditory startle response, benzodiazepine (diazepam) withdrawal; format: in vivo, Male Long Evans rats; settings: for benzodiazepine withdrawal-induced increase in sensory responsiveness: 60 minutes before startle testing, days 1-4
Text: (§2) In humans, withdrawal from the chronic administration of benzodiazepines or nicotine can result in a variety of undesirable side-effects, including anxiety. […] Withdrawal from chronic nicotine administration also has anxiogenic effects as indicated by decreased time spent in the light compartment of a light/dark box (Costall et al., Ibid) and increased auditory startle responses. Applicants examined the effects of compounds of this invention on the auditory startle response of rats undergoing withdrawal from the chronic administration of diazepam or nicotine.
(§3) Male Long Evans rats (200-220 g; Harlan Sprague Dawley, Columbus, Ind.) were individually housed in a controlled environment on a 12 hour light-dark cycle and were given free access to food (Purina Rodent Chow) and water. All treatment groups contained 8-10 rats.
(§4) Rats were anesthetized with halothane and Alzet osmotic minipumps (Alza Corporation, Palo Alto, Calif., Model 2ML2) were implanted subcutaneously. Diazepam (Sigma Chemical; St. Louis, Mo.) was suspended in 40% polyethylene glycol, 10% ethanol and Tween 80. Nicotine ditartrate was dissolved in physiological saline. Pumps were filled with either diazepam (20 mg/kg/day), nicotine ditartrate (6 mg/kg base/day), or the appropriate vehicle. Twelve days following implantation of pumps, rats were anesthetized with halothane and the pumps were removed.
(§5) The sensory motor reactions [auditory startle response (peak amplitude, Vmax)]of individual rats was recorded using San Diego Instruments startle chambers (San Diego, Calif.). Startle sessions consisted of a 5-minute adaptation period at a background noise level of 70±2 dBA immediately followed by 25 presentations of auditory stimuli (120±3 dBA noise, 50 ms duration) presented at 8-second intervals. Peak startle amplitudes were then averaged for all 25 presentations of stimuli for each session. Auditory startle responding was evaluated daily at 24 hour intervals on days 1-4 following drug withdrawal.
(§6) The compound of Example 141 was administered 60 minutes before startle testing at doses of 0, 10, 30, 60, or 100 mg/kg.

[6] = Catalepsy bar test; format: in vivo, Male Sprague-Dawley rats
Method: Acute administration of classical antipsychotic drugs results in catalepsy. Production of catalepsy is thought to be predictive of Parkinson-like extrapyramidal side effects. Sanberg, et al., Neuroscience 102:748-759 (1988). […] Haloperidol, a classical anti-psychotic, was used as a reference.
Male Sprague-Dawley rats (290-350 g) were used in these studies. Catalepsy was evaluated using the bar test (Sanberg et al., Neurosci., 102,748-759, (1988); Ferre, et al., Pharm. Biochem. Beh., 35, 753-757 (1990). The bar apparatus consisted of a horizontal metal rod with a diameter of 1 cm, which was positioned 10 cm from the floor to the top of the bar. The animal was gently placed in front of the bar, and then its forepaws were lifted to rest on the bar. The length of time, in seconds, until both forepaws touched the floor (3 minutes maximum allowed) was recorded. A baseline measurement was taken prior to injection, and catalepsy was evaluated every 60 minutes for three hours after injection of the compounds (Table IV). In a separate set of experiments, the compounds of this invention were administered 60 minutes prior to the administration of haloperidol, and catalepsy was evaluated every 60 minutes for three hours after the haloperidol injection. Catalepsy scores of drug-treated animals were compared to haloperidol- or vehicle-treated animals at each time point using the analysis of variance (ANOVA) (Table V). Haloperidol (Research Biochemicals Inc.) was dissolved in distilled water and a small amount of 0.1N lactic acid. The compounds of this invention were prepared in 50% ethanol. The volume of all injections was 1 ml/kg.

[7] = Auditory startle response, nicotine withdrawal; format: in vivo, Male Long Evans rats
Text: as §2, §3, §4, §5, §6

[8] = Block of haloperidol-induced catalepsy, bar test; format: in vivo, Male Sprague-Dawley rats; settings: vehicle pretreatment, then Hal
Method: Further, compounds of this invention were evaluated for their ability to block haloperidol-induced catalepsy. […] More preferredly, R and R^1 are trans.
Male Sprague-Dawley rats (290-350 g) were used in these studies. […] In a separate set of experiments, the compounds of this invention were administered 60 minutes prior to the administration of haloperidol, and catalepsy was evaluated every 60 minutes for three hours after the haloperidol injection. Catalepsy scores of drug-treated animals were compared to haloperidol- or vehicle-treated animals at each time point using the analysis of variance (ANOVA) (Table V). Haloperidol (Research Biochemicals Inc.) was dissolved in distilled water and a small amount of 0.1N lactic acid. The compounds of this invention were prepared in 50% ethanol. The volume of all injections was 1 ml/kg.

O=C1NN(C(=O)Nc2ccccc2)[C@@H](c2ccccc2)[C@@H]1c1ccccc1 (racemic) [Example 15, (±)-trans-1-phenylaminocarbonyl-4,5-diphenyl-3-pyrazolidinone]
inhibition of CCK-induced colonic motility ([1]; 1 mg/kg iv, CCK 300 ng/kg): 57%
inhibition of colonic motility ([1]; CCK-8 100 ng/kg): ~75%
gall bladder emptying ([2]; 1 mg/kg iv, CCK 300 ng/kg): not measurably altered
alteration of CCK-induced gall bladder emptying ([2]; CCK-8 100 ng/kg): about 10%
effect on CCK-induced gall bladder emptying ([2]; in words): without affecting CCK-induced gall bladder emptying
inhibition at 10 µM ([3]; at 10 μM, read-out: Brain Percent Inhibition): 69%
inhibition at 10 µM [4]: 10%

O=C1NN(C(=O)Nc2ccc(Br)cc2)[C@@H](c2ccccc2)[C@@H]1c1ccccc1 (single isomer, unassigned) [Example 141, (+)-trans-1-[(4-Bromophenyl)aminocarbonyl]-4,5-diphenyl-3pyrazolidinone]
benzodiazepine withdrawal-induced increase in sensory responsiveness ([5]; 60 mg/kg): significantly reduced the benzodiazepine withdrawal-induced increase in sensory responsiveness on all days examined
benzodiazepine withdrawal-induced increase in sensory responsiveness ([5]; 100 mg/kg): significantly reduced the benzodiazepine withdrawal-induced increase in sensory responsiveness on all days examined
Catalepsy Score ([6]; 10 mg/kg, 60 Min): 3.8 ± 0.9 s
Catalepsy Score ([6]; 10 mg/kg, 120 Min): 3.3 ± 1.2 s
Catalepsy Score ([6]; 10 mg/kg, 180 Min): 4.6 ± 2.1 s
Catalepsy Score ([6]; 10 mg/kg, Pre): 1.1 ± 0.2 s
Catalepsy Score ([6]; 30 mg/kg, 60 Min): 2.6 ± 1.1 s
Catalepsy Score ([6]; 30 mg/kg, 120 Min): 2.0 ± 0.6 s
Catalepsy Score ([6]; 30 mg/kg, 180 Min): 4.9 ± 1.9 s
Catalepsy Score ([6]; 30 mg/kg, Pre): 1.5 ± 0.3 s
IC50 ([3]; mouse brain membranes, read-out: Brain IC50): 16 nM
nicotine withdrawal-induced increase in startle response ([7]; 10 mg/kg, days 1-4): significantly reduced the nicotine withdrawal-induced increase in startle response on all days except day 4
nicotine withdrawal-induced increase in sensory responsiveness ([7]; 30 mg/kg, days 1-4): significantly reduced the nicotine withdrawal-induced increase in sensory responsiveness on all days examined
nicotine withdrawal-induced increase in sensory responsiveness ([7]; 60 mg/kg, days 1-4): significantly reduced the nicotine withdrawal-induced increase in sensory responsiveness on all days examined

O=C(CCCN1CCC(O)(c2ccc(Cl)cc2)CC1)c1ccc(F)cc1 [Haloperidol]
Catalepsy Score ([8]; 60 Min): 9.72 ± 2.1 s
Catalepsy Score ([8]; 120 Min): 27.42 ± 6 s
Catalepsy Score ([8]; 180 Min): 30.61 ± 6.4 s
Catalepsy Score ([8]; Pre): 3.12 ± 0.61 s
Catalepsy Score ([6]; 0.25 mg/kg, 60 Min): 2.2 ± 0.3 s
Catalepsy Score ([6]; 0.25 mg/kg, 120 Min, * P < 0.001 vs vehicle): 9.9 ± 2.7 s
Catalepsy Score ([6]; 0.25 mg/kg, 180 Min, * P < 0.001 vs vehicle): 23.1 ± 4.9 s
Catalepsy Score ([6]; 0.25 mg/kg, Pre): 1.8 ± 1.1 s
Catalepsy Score ([6]; 0.5 mg/kg, 60 Min): 3.3 ± 1.7 s
Catalepsy Score ([6]; 0.5 mg/kg, 120 Min, * P < 0.001 vs vehicle): 17.6 ± 2.2 s
Catalepsy Score ([6]; 0.5 mg/kg, 180 Min, * P < 0.001 vs vehicle): 33.5 ± 8.3 s
Catalepsy Score ([6]; 0.5 mg/kg, Pre): 0.9 ± 0.2 s
Catalepsy Score ([6]; 1.0 mg/kg, 60 Min, * P < 0.001 vs vehicle): 10.6 ± 6.3 s
Catalepsy Score ([6]; 1.0 mg/kg, 120 Min, * P < 0.001 vs vehicle): 100.0 ± 46.2 s
Catalepsy Score ([6]; 1.0 mg/kg, 180 Min, * P < 0.001 vs vehicle): 123.9 ± 39.7 s
Catalepsy Score ([6]; 1.0 mg/kg, Pre): 1.2 ± 0.4 s

CN1C(=O)CN=C(c2ccccc2)c2cc(Cl)ccc21 [diazepam, reference compound]
auditory startle response after cessation of chronic diazepam ([5]; 20 mg/kg/day, minipump, twelve days, withdrawal): significantly increased auditory startle responses

CN1CCC[C@H]1c1cccnc1 [nicotine, reference compound]
auditory startle response after cessation of chronic nicotine ([7]; 6 mg kg base/day, minipump, twelve days, withdrawal): significantly increased auditory startle responses
